Results on one molecule are retold here after ChEMBL document CHEMBL3352654, “Synthesis, biological evaluation and SAR analysis of O-alkylated analogs of quercetin for anticancer” (Bioorg Med Chem Lett, 2014).

Holding throughout (assay type): functional, cell-based
Experiment [1] has as its system A549. As to the kind of experiment: Anticancer activity against human A549 cells by HTS assay.
Experiment [2] has as its system NCI-H157. As to the kind of experiment: Anticancer activity against human NCI-H157 cells by HTS assay.
A short description of experiment [3]: Anticancer activity against human H460 cells by HTS assay. The settings on record: NCI-H460.
Experiment [4] has as its system NCI-H1792. Briefly: Anticancer activity against human NCI-H1792 cells by HTS assay.
A short description of experiment [5]: Anticancer activity against human NCI-H1944 cells by HTS assay.
Experiment [6] in a line: Anticancer activity against human […] cells by HTS assay.
Experiment [7] has as its system NCI-H522. As to the kind of experiment: Anticancer activity against human NCI-H522 cells by HTS assay.
In experiment [8] the test system is HOP-62. As to the kind of experiment: Anticancer activity against human HOP62 cells by HTS assay.
The nature of experiment [9]: Anticancer activity against human H1299 cells by HTS assay. The conditions noted are these: NCI-H1299.
A short description of experiment [10]: Anticancer activity against human 292G cells by HTS assay.
Experiment [11] is described as follows: Anticancer activity against human Calu1 cells by HTS assay. The settings on record: Calu-1.
Experiment [12] can be described thus: Anticancer activity against human M4E cells by HTS assay.
Experiment [13] is described as follows: Anticancer activity against human LOXIMVI cells by HTS assay. The conditions noted are these: LOX IMVI.
Experiment [14] relates to M14. As to the kind of experiment: Anticancer activity against human M14 cells by HTS assay.
The nature of experiment [15]: Anticancer activity against human SKBR cells by HTS assay.
Experiment [16] has as its system HeLa. As to the kind of experiment: Anticancer activity against human HeLa cells by HTS assay.

Bounds are passed on as bounds.

Take `COc1cc(O)c2c(=O)c(OC)c(-c3ccc(O)c(O)c3)oc2c1`: the IC50 in [1] was 5.4 µM; in [2] it was 13 µM; in experiment [3], 7.02 µM; in [4] it was 19.7 µM; in [5], 0.46 µM; in experiment [6], greater than 50 µM. The IC50 was greater than 50 µM in experiment [7]; 13.2 µM in [8]; 15.6 µM in experiment [9]; 24 µM in experiment [10]; 39.6 µM in [11]; 21.3 µM in experiment [12]. For the same molecule, the IC50 in [13] amounted to 24.1 µM; in experiment [14], 21.7 µM; in experiment [15], 5.28 µM; in experiment [16] it was 11.1 µM.
